Molecules are shown by their SMILES.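 1) Cells in 96-well plates. 2) Compound, 48 h, 5 concentrations. 3) Linear interpolation between surrounding doses. 4) Unreached endpoint = highest concentration. GI50 marks 50% less growth. TGI marks complete inhibition of growth.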

What all share (assay): DTP human tumour cell line panel, 48 h
The test system of assay [1] is SNB-19 CNS.
For assay [2], the system named is KM12 colon.
The subject of assay [3] is HOP-62 NSCLC.
Assay [4] has as its system UACC-62 melanoma.
The test system of assay [5] is EKVX NSCLC.
Assay [6] has as its system MDA-MB-231 breast.
In assay [7] the test system is SF-295 CNS.
Assay [8] has as its system HT29 colon.
Assay [9] relates to NCI-H226 lung.
Assay [10] relates to CCRF-CEM leukemia.

By TGI is commonly meant the concentration giving total growth inhibition. A low value points to more potent growth arrest. In the case of `COC(=O)c1ccc2[nH]c3c(c2c1)CC(=O)Nc1ccccc1-3`, the TGI in assay [1], in assay [2], in [3], in assay [4], in [5] and in assay [6] was more than 100 µM each time. The TGI in [7], in [8] and in assay [9] was more than 100 µM throughout.

`C[N+](C)(C)CC(=O)N/N=C(\C(=O)Nc1ccc(Cl)cc1)C1C(=O)N(c2ccccc2)N=C1N` (stereo not given): the TGI in assay [1], in assay [2], in assay [3], in [4], in [5] and in assay [10] was more than 100 µM throughout. This compound also returned a TGI in assay [8] of more than 100 µM.

In the case of `CC(C)(Oc1ccc(C2C[C@H]2Cl)cc1)C(=O)O` (stereo not given in full), the TGI in [1], in assay [2], in assay [3], in assay [4], in [5] and in [6] was more than 100 µM throughout. In assay [7], this compound registered a TGI of more than 100 µM.

For the compound `CC(=O)NC(Cc1ccccc1)C(=S)N1CCCC1` (stereo not given), the TGI in assay [1], in assay [2], in [3], in assay [4], in assay [5] and in assay [10] was more than 100 µM in each case. Besides, the TGI in assay [7], in assay [8] and in [9] was more than 100 µM each time.

Turning to `Nc1nc(NC(=O)C2=NS(=O)(=O)c3cc(S(N)(=O)=O)c(Cl)cc3N2)n[nH]1`, the TGI in assay [1], in [2], in assay [3], in [4], in [5] and in [10] was more than 100 µM in each case. Further, the TGI in assay [7], in [8] and in assay [9] was more than 100 µM in each case.

Regarding `O=C(CSCC(=O)N/N=C\c1cc(Br)cc(Br)c1O)N/N=C\c1cc(Br)cc(Br)c1O`, the TGI in assay [1] was more than 100 µM; in assay [2] it was more than 100 µM; in assay [3], more than 100 µM; in assay [4], 39.7 µM; in assay [5], more than 100 µM; in assay [7], more than 100 µM. Besides, the TGI is more than 100 µM in [8] and 58.2 µM in assay [9].

On to `COc1cc(/C=C/C(=O)C(C)(C)C)cc(OC)c1OC`, for which the TGI is more than 100 µM in assay [1]; 52.7 µM in [2]; more than 100 µM in [3]; more than 100 µM in assay [4]; more than 100 µM in assay [5]; more than 100 µM in assay [10]. For the same compound, the concentration for total growth inhibition (TGI) was more than 100 µM in assay [7], more than 100 µM in assay [8] and 97.9 µM in assay [9].

For `COC[C@@H](N=Cc1ccc(OC)cc1)C(C)C`, the TGI in assay [2], in assay [3], in assay [4], in assay [5], in assay [10] and in assay [7] was more than 100 µM each time. In assay [8], the TGI was more than 100 µM.

As to `CC1=CC(=O)C[C@]2(C)[C@@H](O)CC(C(C)CO)C[C@@H]12` (stereo not given in full), the TGI in assay [1], in assay [2], in [3], in [4], in assay [5] and in [6] was more than 100 µM each time. Further, the TGI in [7], in [8] and in [9] was more than 100 µM each time.

As to `CC(C)CCC[C@@H](C)[C@H]1CC[C@H]2[C@@H]3CC=C4CC(OCCCCN(O)CCCSC5OC(CO)C(O)C(O)C5O)CC[C@]4(C)[C@H]3CC[C@]12C` (stereo not given in full), the TGI in assay [1] is more than 100 µM; in assay [2] it was more than 100 µM; in assay [3], more than 100 µM; in assay [4], more than 100 µM; in [5] it was more than 100 µM; in assay [10] it was 72 µM. Also, the TGI in assay [7] and in assay [8] was more than 100 µM throughout.

As usually defined, the GI50 is the concentration at which growth is held to half of that of the control. On to `O=C(CCc1nnc2s/c(=C\c3ccc(Cl)cc3Cl)c(=O)n12)Nc1cc(Cl)c(Cl)cc1Cl`, for which the GI50 in assay [2], in assay [3], in assay [4], in assay [5], in [10] and in [7] was more than 100 µM in each case. The GI50 in [8] and in assay [9] was more than 100 µM each time. For the same compound, the TGI in assay [2], in [3], in assay [4], in [5], in assay [10] and in assay [7] was more than 100 µM in each case. Also, the TGI in [8] and in [9] was more than 100 µM in each case.

Consider `N#C/C(=C/NC(=S)Nc1ccc(S(N)(=O)=O)cc1)C(N)=O`, for which the TGI in [2], in assay [3], in assay [4], in [5], in assay [7] and in [8] was more than 100 µM throughout.

As to `COc1cc2c(oc(=O)c3c4oc([Si](C)(C)C)cc4cc(OC)c23)c2cccc(O)c12`, the TGI in assay [1], in assay [2], in [3], in assay [4], in assay [5] and in [10] was more than 100 µM throughout. The TGI in [7], in assay [8] and in assay [9] was more than 100 µM each time.

As to `O=C(N/N=C/c1cc(-c2ccccc2Cl)c(-c2ccccc2Cl)o1)c1ccncc1`, the TGI in [1], in assay [3], in assay [4], in [5], in [7] and in assay [8] was more than 100 µM in each case. This compound gave a TGI in assay [9] of more than 100 µM.

For the origin of these results see PubChem BioAssay (NCI).
